Assay results reported in patent publication US9815810B1, “Method of cannabinoid preservation through crystallization and other crystal structures” (Deep Cell […]., priority 2016, dated 2017).
“And” between values parts separate entries of the source, which are not always exact repeats. Equal entries are not always repeated.

Experiments:
[1] = Cannabinoid profile of the cannabis extract by LCMS analysis; details: cannabis extract labeled RB Fat
[2] = Cannabinoid profile of crystalline product samples by HPLC-DAD-MS analysis (cannabinoid preservation); details: for Cannabinoid quantity, Avg R103A-C: average of Samples R103A-C; for Cannabinoid quantity, Avg R103A-C / Cannabinoid quantity in Sample R103A / Cannabinoid quantity in Sample R103B / Cannabinoid quantity in Control R104 / Cannabinoid quantity in Sample S103: without rapid cooling process; for Cannabinoid quantity in Sample R103A / Cannabinoid quantity in Sample R103B / Cannabinoid quantity in Sample S201 / Cannabinoid quantity in Sample S103 / Cannabinoid quantity in Sample R104A / Cannabinoid quantity in (Retest) Sample R104A / Cannabinoid quantity in Sample R104B: crystalline product; for Cannabinoid quantity in Sample R103A / Cannabinoid quantity in Sample R103B: from RB Fat; for Cannabinoid quantity in Control R104: control crystalline product; for Cannabinoid quantity in Sample S201 / Cannabinoid quantity in Sample S103 / Change in cannabinoid quantity, Sample S201 compared to Sample S103: sodium chloride; for Cannabinoid quantity in Sample S201 / Cannabinoid quantity in Sample R104A / Cannabinoid quantity in (Retest) Sample R104A / Cannabinoid quantity in Sample R104B: with rapid cooling process; for Cannabinoid quantity in Sample S103: from RB-Fat; for Cannabinoid quantity in Sample R104A: original test; for Cannabinoid quantity in Sample R104B: stored for three months before being tested; for Change in cannabinoid quantity, Sample S201 compared to Sample S103: with vs without rapid cooling process

Row | SMILES | Cannabinoid quantity in Sample RB Fat [1] [mg/mL] | Cannabinoid quantity, Avg R103A-C ([2]; sucrose) | Cannabinoid quantity in Sample R103A ([2]; sucrose) [mg/g] | Cannabinoid quantity in Sample R103B ([2]; sucrose) [mg/g] | Cannabinoid quantity in Control R104 ([2]; sucrose) | Cannabinoid quantity in Sample S201 [2] [mg/g] | Cannabinoid quantity in Sample S103 [2] | Cannabinoid quantity in Sample R104A ([2]; sucrose) | Cannabinoid quantity in (Retest) Sample R104A ([2]; sucrose) [mg/g] | Cannabinoid quantity in Sample R104B ([2]; sucrose) [mg/g] | Change in cannabinoid quantity, Sample S201 compared to Sample S103 [2] | Increase in quantity, Sample R104A compared to the control sample ([2]; sucrose, rapid cooling process vs Control R104) [%]
1 | CCCCCc1cc2c(c(O)c1C(=O)O)[C@@H]1C=C(C)CC[C@H]1C(C)(C)O2 [THC-A, Tetrahydrocannabinolic acid] | 37.07 | 5.46 mg/g | 7.13 | 6.18 | – | – | – | – | – | – | – | –
2 | CCCCCc1cc2c(c(O)c1C(=O)O)C1C3C(CCC3(C)O2)C1(C)C (centres unmarked) [CBL-A, cannabicyclol acid] | 0.38 | 0.39 mg/g | 0.46 | 0.35 | – | – | – | – | – | – | – | –
3 | C=C(C)[C@@H]1CCC(C)=C[C@H]1c1c(O)cc(CCCCC)cc1O [CBD, Cannabidiol, reference compound] | – | No detectable quantities | – | – | 0.17 mg/g | 0.11 | 0.22 mg/g | 0.08 mg/g | 0.15 | 0.17 | marginal differences | –
4 | CCCCCc1cc(O)c(C/C=C(\C)CCC=C(C)C)c(O)c1C(=O)O [CBG-A, cannabigerolic acid] | 1.22 | no quantity of CBG-A was detected | – | – | undetectable quantities | – | – | negligible or no detectable quantities | – | – | – | –
5 | CCCc1cc(O)c2c(c1)OC(C)(C)[C@@H]1CCC(C)=C[C@@H]21 [THCV, Tetrahydrocannabivarin] | – | 0.16 mg/g | 0.14 | 0.2 | 0.34 mg/g | 0.41 | 0.51 mg/g | 0.54 mg/g | 0.52 | 0.55 | marginal differences | –
6 | CCCc1cc2c(c(O)c1C(=O)O)C1C=C(C)CCC1C(C)(C)O2 (centres unmarked) [THCV-A] | 0.26 | 0.02 mg/g | 0.05 | – | undetectable quantities | – | – | negligible or no detectable quantities | – | – | – | –
7 | CCCCCc1cc(O)c(C/C=C(\C)CCC=C(C)C)c(O)c1 [CBG, Cannabigerol] | 0.69 | 0.28 mg/g | 0.32 | 0.26 | 0.82 mg/g | 0.93 | 0.58 mg/g | 1.34 mg/g | 1.29 | 1.25 | marginal differences | –
8 | CCCCCc1cc(O)c2c(c1)OC(C)(CCC=C(C)C)C=C2 (centres unmarked) [CBC, Cannabichromene] | 0.63 | 0.45 mg/g | 0.47 | 0.45 | 0.8 mg/g | 0.84 | 0.94 mg/g | 1.18 mg/g | 1.15 | 1.22 | marginal differences | –
9 | C=C(C)[C@@H]1CCC(C)=C[C@H]1c1c(O)cc(CCCCC)c(C(=O)O)c1O [CBD-A, Cannabidiolic acid] | 0.12 | No detectable quantities | – | – | undetectable quantities | – | – | negligible or no detectable quantities | – | – | – | –
10 | CCCCCc1cc(O)c2c(c1)OC(C)(C)[C@@H]1CC=C(C)C[C@@H]21 [Δ8-THC, Δ-8-tetrahydrocannabinol] | – | 0.06 mg/g | – | – | 1.7 mg/g | – | – | no detectable quantities | 1.36 | 0.14 | – | –
11 | CCCCCc1cc(O)c2c(c1)OC(C)(C)[C@@H]1CCC(C)=C[C@@H]21 [Δ9-THC, Δ-9-tetrahydrocannabinol, reference compound] | 12.85 | 15.79 mg/g | 15.56 | 16.18 | 35.37 mg/g | 40.04 | 21.93 mg/g and 21.92 mg/g | 57.13 mg/g | 57.45 | 60.42 | two-fold increase | 62
12 | CCCCCc1cc(O)c2c(c1)OC(C)(C)c1ccc(C)cc1-2 [CBN, Cannabinol] | 0.3 | 1.03 mg/g | 0.93 | 1 | 0.57 mg/g | 0.79 | 2.33 mg/g | 1.17 mg/g | 1.26 | 1.28 | significant reduction | –
